Reference: patent publication EP4707280A1, “1,4-CINEOLE DERIVATIVE AND INTERMEDIATE THEREOF, HERBICIDE CONTAINING SAID DERIVATIVE AS ACTIVE INGREDIENT, METHOD FOR USING HERBICIDE, AND METHOD FOR PREPARING AGROCHEMICAL COMPOSITION” (HOKKO CHEMICAL INDUSTRY CO., LTD., priority 2023, dated 2024)

Key:
Format in all cases: in vivo
[1] = test system: Echinochloa crus-galli var. formosensis; assay: Test Example 1: herbicidal effect test by soil application in paddy rice; settings: Echinochloa crus-galli, soil, 336 h; 120 g active ingredient per 10 ares; applied immediately after sowing, flooded pots; 14 days after application; read-out: weed inhibition rate
Summary of the method: (§1)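 Flooded-pot paddy assay: sow at 0–1 cm, flood to about 3 cm, then apply diluted emulsifiable concentrate by dropper, 120 g a.i. per 10 ares; greenhouse-grown.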

Scirpus juncoides [2] = assay: as above; settings: Schoenoplectiella juncoides, soil, 336 h; 120 g active ingredient per 10 ares; applied immediately after sowing, flooded pots; 14 days after application; read-out: weed inhibition rate
Summary of the method: as §1

Chenopodium album = assay: Test Example 3: herbicidal effect test by soil application in upland field; settings: 120 g per 10 ares, sprayed one day after sowing, 14 days after application, read-out: weed inhibition rate
Summary of the method: (§2)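 Weed inhibition (%) was assessed 14 days after treatment, in duplicate per concentration group. Seeds had been mixed into the upper 1 cm of upland alluvial loam, and the soil surface was sprayed one day later with the diluted emulsifiable concentrate at 120 g active ingredient per 10 ares.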

Digitaria ciliaris [3] = assay: as above; settings: Digitaria ciliaris, 120 g per 10 ares, sprayed one day after sowing, 14 days after application, read-out: weed inhibition rate
Summary of the method: as §2

Echinochloa crus-galli = assay: as above; settings: Echinochloa crus-galli, 120 g per 10 ares, sprayed one day after sowing, 14 days after application, read-out: weed inhibition rate
Summary of the method: as §2

Digitaria ciliaris [4] = assay: Test Example 4: herbicidal effect test by stem and leaf treatment in upland field; settings: Digitaria ciliaris; 120 g per 10 ares; sprayed seven days after sowing, upland soil; 14 days after application; read-out: weed inhibition rate
Monochoria vaginalis [5] = assay: Test Example 5: herbicidal effect test by soil application in paddy rice (low dose); settings: Pontederia vaginalis, 336 h, 7.5 g per 10 ares, applied immediately after sowing, flooded pots, 14 days after application, read-out: weed inhibition rate
Summary of the method: (§3)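 Paddy-soil pots, weeds sown 0–1 cm deep and flooded to about 3 cm in a greenhouse. Emulsifiable concentrate diluted in water and dropped in right after sowing at 7.5 g active ingredient per 10 ares. Duplicates; effect scored 14 days after application.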

Monochoria vaginalis [6] = assay: Test Example 6: herbicidal effect test by application during growth period of paddy rice (low dose); settings: Pontederia vaginalis; 7.5 g per 10 ares; applied seven days after sowing, flooded pots; 14 days after application; read-out: weed inhibition rate
Summary of the method: (§4)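 Emulsifiable concentrate, water-diluted, dropped onto flooded paddy pots 7 days post-sowing at 7.5 g active ingredient/10 a. Greenhouse-grown weeds; percent inhibition scored at day 14 after treatment.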

Scirpus juncoides [7] = assay: as above; settings: Schoenoplectiella juncoides; 7.5 g per 10 ares; applied seven days after sowing, flooded pots; 14 days after application; read-out: weed inhibition rate
Summary of the method: as §4

Scirpus juncoides [8] = assay: Test Example 5: herbicidal effect test by soil application in paddy rice (low dose); settings: Schoenoplectiella juncoides, 336 h, 7.5 g per 10 ares, applied immediately after sowing, flooded pots, 14 days after application, read-out: weed inhibition rate
Summary of the method: as §3

Amaranthus viridis = assay: Test Example 3: herbicidal effect test by soil application in upland field; settings: Amaranthus viridis, 120 g per 10 ares, sprayed one day after sowing, 14 days after application, read-out: weed inhibition rate
Summary of the method: as §2

Cc1ccccc1CO[C@@H]1C[C@]2(C(C)C)O[C@@]1(C)C[C@@H]2F [1-2, (1R,2S,4S,5R)-2-fluoro-1-isopropyl-4-methyl-5-((2-methylbenzyl)oxy)-7-oxabicyclo[2.2.1]heptane]
≥ 80%: pest or weed control at 1200 g/ha [1] | pest or weed control at 1200 g/ha (Scirpus juncoides [2]) | inhibition at 1200 g/ha (Chenopodium album) | inhibition at 1200 g/ha (Digitaria ciliaris [3]) | inhibition at 1200 g/ha (Echinochloa crus-galli) | inhibition at 1200 g/ha (Digitaria ciliaris [4]) | inhibition at 75 g/ha (Monochoria vaginalis [5]) | inhibition at 75 g/ha (Monochoria vaginalis [6]) | inhibition at 75 g/ha (Scirpus juncoides [7])

CC(C)[C@]12C[C@@H](OCc3ccccc3F)[C@](C)(C[C@@H]1F)O2 [1-5, (1R,2S,4S,5R)-2-fluoro-5-((2-fluorobenzyl)oxy)-1-isopropyl-4-methyl-7-oxabicyclo[2.2.1]heptane]
≥ 80%: pest or weed control at 1200 g/ha [1] | pest or weed control at 1200 g/ha (Scirpus juncoides [2]) | inhibition at 1200 g/ha (Chenopodium album) | inhibition at 1200 g/ha (Digitaria ciliaris [3]) | inhibition at 1200 g/ha (Echinochloa crus-galli) | inhibition at 1200 g/ha (Digitaria ciliaris [4]) | inhibition at 75 g/ha (Monochoria vaginalis [5]) | inhibition at 75 g/ha (Scirpus juncoides [8]) | inhibition at 75 g/ha (Monochoria vaginalis [6]) | inhibition at 75 g/ha (Scirpus juncoides [7])

CC(C)[C@]12C[C@@H](OCc3ccccc3F)[C@](C)(C[C@@H]1O)O2 [1-30, (1R,2S,4S,5R)-5-((2-fluorobenzyl)oxy)-1-isopropyl-4-methyl-7-oxabicyclo[2.2.1]heptan-2-ol]
≥ 80%: pest or weed control at 1200 g/ha [1] | pest or weed control at 1200 g/ha (Scirpus juncoides [2]) | inhibition at 1200 g/ha (Amaranthus viridis) | inhibition at 1200 g/ha (Chenopodium album) | inhibition at 1200 g/ha (Digitaria ciliaris [3]) | inhibition at 1200 g/ha (Echinochloa crus-galli) | inhibition at 1200 g/ha (Digitaria ciliaris [4]) | inhibition at 75 g/ha (Scirpus juncoides [8]) | inhibition at 75 g/ha (Scirpus juncoides [7])

CC(C)[C@]12C[C@@H](OCc3c(F)cccc3F)[C@](C)(C[C@@H]1O)O2 [1-41, (1R,2S,4S,5R)-5-((2,6-difluorobenzyl)oxy)-1-isopropyl-4-methyl-7-oxabicyclo[2,2,1]heptan-2-ol]
≥ 80%: pest or weed control at 1200 g/ha [1] | pest or weed control at 1200 g/ha (Scirpus juncoides [2]) | inhibition at 1200 g/ha (Amaranthus viridis) | inhibition at 1200 g/ha (Chenopodium album) | inhibition at 1200 g/ha (Digitaria ciliaris [3]) | inhibition at 1200 g/ha (Echinochloa crus-galli) | inhibition at 1200 g/ha (Digitaria ciliaris [4]) | inhibition at 75 g/ha (Scirpus juncoides [8]) | inhibition at 75 g/ha (Scirpus juncoides [7])

Cc1ccccc1CO[C@@H]1C[C@]2(C(C)C)O[C@@]1(C)CC2C (stereo partly drawn) [1-83, (1S,2R,4R)-4-isopropyl-1,5-dimethyl-2-((2-methylbenzyl)oxy)-7-oxabicyclo[2.2.1]heptane]
≥ 80%: pest or weed control at 1200 g/ha [1] | pest or weed control at 1200 g/ha (Scirpus juncoides [2]) | inhibition at 1200 g/ha (Chenopodium album) | inhibition at 1200 g/ha (Digitaria ciliaris [3]) | inhibition at 1200 g/ha (Echinochloa crus-galli) | inhibition at 1200 g/ha (Digitaria ciliaris [4]) | inhibition at 75 g/ha (Monochoria vaginalis [5]) | inhibition at 75 g/ha (Scirpus juncoides [8]) | inhibition at 75 g/ha (Monochoria vaginalis [6]) | inhibition at 75 g/ha (Scirpus juncoides [7])

CC(C)[C@]12C[C@@H](OCc3c(F)cccc3F)[C@](C)(CC1C)O2 (stereo partly drawn) [1-111, (1S,2R,4R)-2-((2,6-difluorobenzyl)oxy)-4-isopropyl-1,5-dimethyl-7-oxabicyclo[2.2.1]heptane]
≥ 80%: pest or weed control at 1200 g/ha [1] | pest or weed control at 1200 g/ha (Scirpus juncoides [2]) | inhibition at 1200 g/ha (Chenopodium album) | inhibition at 1200 g/ha (Digitaria ciliaris [3]) | inhibition at 1200 g/ha (Echinochloa crus-galli) | inhibition at 1200 g/ha (Digitaria ciliaris [4])

CCC1C[C@]2(C)O[C@@]1(C(C)C)C[C@H]2OCc1ccccc1C (stereo partly drawn) [1-123, (1R,4S,5R)-2-ethyl-1-isopropyl-4-methyl-5-((2-methylbenzyl)oxy)-7-oxabicyclo[2.2.1]heptane]
≥ 80%: pest or weed control at 1200 g/ha [1] | inhibition at 1200 g/ha (Chenopodium album) | inhibition at 1200 g/ha (Digitaria ciliaris [3]) | inhibition at 1200 g/ha (Echinochloa crus-galli) | inhibition at 1200 g/ha (Digitaria ciliaris [4])

CCC1C[C@]2(C)O[C@@]1(C(C)C)C[C@H]2OCc1ccccc1F (stereo partly drawn) [1-126, (1R,4S,5R)-2-ethyl-5-[(2-fluorobenzyl)oxy]-1-isopropyl-4-methyl-7-oxabicyclo[2.2.1]heptane]
≥ 80%: pest or weed control at 1200 g/ha [1] | pest or weed control at 1200 g/ha (Scirpus juncoides [2]) | inhibition at 1200 g/ha (Chenopodium album) | inhibition at 1200 g/ha (Digitaria ciliaris [3]) | inhibition at 1200 g/ha (Echinochloa crus-galli) | inhibition at 1200 g/ha (Digitaria ciliaris [4])

CC(C)[C@]12C[C@@H](OCc3ccccc3Cl)[C@](C)(CC1=O)O2 [2-11, (1R,4S,5R)-5-((2-chlorobenzyl)oxy)-1-isopropyl-4-methyl-7-oxabicyclo[2.2.1]heptan-2-one]
≥ 80%: pest or weed control at 1200 g/ha [1] | pest or weed control at 1200 g/ha (Scirpus juncoides [2]) | inhibition at 1200 g/ha (Amaranthus viridis) | inhibition at 1200 g/ha (Chenopodium album) | inhibition at 1200 g/ha (Digitaria ciliaris [3]) | inhibition at 1200 g/ha (Echinochloa crus-galli) | inhibition at 1200 g/ha (Digitaria ciliaris [4]) | inhibition at 75 g/ha (Scirpus juncoides [8])

CC(C)[C@]12C[C@@H](OCc3c(F)cccc3F)[C@](C)(CC1=O)O2 [2-20, (1R,4S,5R)-5-((2,6-difluorobenzyl)oxy)-1-isopropyl-4-methyl-7-oxabicyclo[2.2.1]heptan-2-one]
≥ 80%: pest or weed control at 1200 g/ha [1] | pest or weed control at 1200 g/ha (Scirpus juncoides [2]) | inhibition at 1200 g/ha (Amaranthus viridis) | inhibition at 1200 g/ha (Chenopodium album) | inhibition at 1200 g/ha (Digitaria ciliaris [3]) | inhibition at 1200 g/ha (Echinochloa crus-galli) | inhibition at 1200 g/ha (Digitaria ciliaris [4]) | inhibition at 75 g/ha (Monochoria vaginalis [5]) | inhibition at 75 g/ha (Scirpus juncoides [8])

CC(C)[C@]12C[C@@H](OCc3c(F)cccc3Br)[C@](C)(CC1=O)O2 [2-355, (1R,4S,5R)-5-((2-bromo-6-fluorobenzyl)oxy)-1-isopropyl-4-methyl-7-oxabicyclo[2.2.1]heptan-2-one]
≥ 80%: pest or weed control at 1200 g/ha [1] | pest or weed control at 1200 g/ha (Scirpus juncoides [2]) | inhibition at 1200 g/ha (Digitaria ciliaris [3]) | inhibition at 1200 g/ha (Echinochloa crus-galli) | inhibition at 1200 g/ha (Digitaria ciliaris [4]) | inhibition at 75 g/ha (Monochoria vaginalis [5]) | inhibition at 75 g/ha (Scirpus juncoides [8]) | inhibition at 75 g/ha (Monochoria vaginalis [6]) | inhibition at 75 g/ha (Scirpus juncoides [7])

CC(C)[C@]12C=C[C@](C)(O1)[C@H](OCc1ccccc1)C2 [3-1, (1R,4S,5R)-4-methyl-5-phenylmethoxy-1-isopropyl-7-oxabicyclo[2.2.1]hept-2-ene]
≥ 80%: pest or weed control at 1200 g/ha [1] | pest or weed control at 1200 g/ha (Scirpus juncoides [2]) | inhibition at 1200 g/ha (Digitaria ciliaris [3]) | inhibition at 1200 g/ha (Echinochloa crus-galli) | inhibition at 1200 g/ha (Digitaria ciliaris [4]) | inhibition at 75 g/ha (Monochoria vaginalis [5]) | inhibition at 75 g/ha (Scirpus juncoides [8]) | inhibition at 75 g/ha (Monochoria vaginalis [6]) | inhibition at 75 g/ha (Scirpus juncoides [7])

Cc1ccccc1CO[C@@H]1C[C@@]2(C(C)C)C=C[C@]1(C)O2 [3-2, (1R,4S,5R)-4-methyl-5-[(2-methylphenyl)methoxy]-1-isopropyl-7-oxabicyclo[2.2.1]hept-2-ene]
≥ 80%: pest or weed control at 1200 g/ha [1] | pest or weed control at 1200 g/ha (Scirpus juncoides [2]) | inhibition at 1200 g/ha (Amaranthus viridis) | inhibition at 1200 g/ha (Digitaria ciliaris [3]) | inhibition at 1200 g/ha (Echinochloa crus-galli) | inhibition at 75 g/ha (Monochoria vaginalis [5]) | inhibition at 75 g/ha (Scirpus juncoides [8]) | inhibition at 75 g/ha (Monochoria vaginalis [6]) | inhibition at 75 g/ha (Scirpus juncoides [7])
